Data from paper PMC8092843 (Journal of Virology, 2021).
Read-outs that look alike come from different tables or passages of the source. Ends that are not written are not given here.

Target: HLA-A*02:01 molecule (UniProt P01899+P04439, D140Y/D185E/D98H/E176V/G131W/I119V/I121R/I166T/N151K/N90K/Q86G/Q94H/R138H/R169H)
Experiment: cell-based
Type: binding, human

Row | Sequence | EC50 (SD) [µM] | EC50 [µM]
1 | MLAKALRKV [pp1a-1312] | 95.2 ± 0.7 | –
2 | VMVELVAEL [pp1a-84] | 6.8 ± 0.3 | –
3 | SLRVCVDTV [pp1a-1161] | 85.7 ± 1.9 | –
4 | NLAKHCLHV [pp1a-1109] | 38.5 ± 8.2 | –
5 | FITESKPSV [pp1a-1214] | 122 ± 31.7 | –
6 | QLFFSYFAV [pp1a-2348] | 146 ± 19.7 | –
7 | SLINTLNDL [pp1a-1433] | 123 ± 11 | –
8 | YITGGVVQL [pp1a-600] | 48.5 ± 7.9 | –
9 | WLMWLIINL [pp1a-2363] | 103 ± 6.4 | –
10 | ALNLGETFV [pp1a-702] | 40.7 ± 2.8 | –
11 | FLGRYMSAL [pp1a-1642] | 124 ± 1.9 | –
12 | YLEGSVRVV [pp1a-2968] | 7.5 ± 0.1 | –
13 | ILGTVSWNL [pp1a-1367] | 123 ± 11.3 | –
14 | YLASGGQPI [pp1a-4283] | 39.8 ± 6.2 | –
15 | AIFYLITPV [pp1a-2785] | 5.1 ± 1.6 | –
16 | YLTNDVSFL [pp1a-3115] | 4.8 ± 0.3 | –
17 | TLSEQLDFI [pp1a-214] | 2 ± 0.2 | –
18 | GLVEVEKGV [pp1a-52] | 14.5 ± 4.9 | –
19 | SLPGVFCGV [pp1a-3013] | 3.1 ± 0.2 | –
20 | TVYEKLKPV [pp1a-619] | 5.6 ± 0.7 | –
21 | ILFTRFFYV [pp1a-2332] | 96.5 ± 14 | –
22 | YLATALLTL [pp1a-1675] | 8.4 ± 0.2 | –

Row | Sequence | EC50 (SD) [µM] | EC50 [µM]
23 | ILLLDQALV [pp1a-2569] | 9.6 ± 1.5 | –
24 | GLNDNLLEI [pp1a-445] | 6 ± 0.2 | –
25 | KTLQPVSEL [pp1a-881] | 162 ± 28.3 | –
26 | VINGDRWFL [pp1a-3475] | 85 ± 5.4 | –
27 | MLFTMLRKL [pp1a-4032] | 166 ± 21.7 | –
28 | FLARGIVFM [pp1a-3753] | 71.2 ± 12.9 | –
29 | KLMPVCVET [pp1a-1387] | 174 ± 33.5 | –
30 | CLLNRYFRL [pp1a-3798] | 81.6 ± 20.2 | –
31 | FLLNKEMYL [pp1a-3183] | 12.9 ± 6.8 | –
32 | SMQNCVLKL [pp1a-3344] | 105 ± 2.2 | –
33 | LMWLIINLV [pp1a-2364] | 159 ± 42.8 | –
34 | GILFGVFTL [FMP58-66, reference compound] | – | 2.3
35 | FLNGSCGSV [pp1a-3403] | 18.7 ± 3.2 | –
36 | IIWFLLLSV [pp1a-2230] | 177 ± 6.3 | –
37 | VLLSVLQQL [pp1a-3871] | 44.9 ± 6 | –
38 | VLLSMQGAV [pp1a-3917] | 112 ± 7.2 | –
39 | RIMTWLDMV [pp1a-3662] | 76.5 ± 7.1 | –
40 | WMVMFTPLV [pp1a-3128] | 9.8 ± 1.1 | –
41 | VLVPHVGEI [pp1a-106] | 76 ± 2 | –
42 | YMPYFFTLL [pp1a-2168] | 99 ± 2.4 | –
43 | TLGVLVPHV [pp1a-103] | 1.3 ± 0.2 | –
44 | SMWALIISV [pp1a-3732] | 8.9 ± 0.4 | –

Row | Sequence | EC50 (SD) [µM] | EC50 [µM]
45 | ALLSDLQDL [pp1a-4183] | 42.4 ± 6.1 | –
46 | KLIEYTDFA [pp1a-2901] | 126 ± 2.5 | –
47 | TLGVYDYLV [pp1a-3807] | 61.7 ± 8.7 | –
48 | ILTSLLVLV [pp1a-3587] | 8.3 ± 0.9 | –
49 | QLMCQPILL [pp1a-2563] | 11.1 ± 1.8 | –
50 | SLIYSTAAL [pp1a-2242] | 134 ± 7.6 | –
51 | IVAGGIVAI [pp1a-3047] | 50.5 ± 2.5 | –
52 | KLWAQCVQL [pp1a-3886] | 27.2 ± 9.4 | –
53 | LLFLMSFTV [pp1a-3083] | 39.4 ± 0.9 | –
54 | LLLTILTSL [pp1a-3583] | 63.8 ± 3.1 | –
55 | QLSLPVLQV [pp1a-15] | 79.4 ± 4.4 | –
56 | VMAYITGGV [pp1a-597] | 9.5 ± 0.9 | –
57 | TLMNVLTLV [pp1a-3710] | 2 ± 0.4 | –
58 | KLNEEIAII [pp1a-468] | 56.2 ± 4.8 | –
59 | YLNSTNVTI [pp1a-2270] | 8.9 ± 0.3 | –
60 | VLSEARQHL [pp1a-38] | 76.8 ± 6.8 | –
61 | FLAHIQWMV [pp1a-3122] | 6.9 ± 0.4 | –
62 | FLRDGWEIV [pp1a-641] | 0.9 ± 0.1 | –
63 | FLALCADSI [pp1a-685] | 10.2 ± 0.5 | –
64 | CLHVVGPNV [pp1a-1114] | 62.9 ± 2.3 | –
